Results as given in patent US20030083501A1, “Process for preparing paroxetine HCl which limits formation of pink colored compounds” (priority 2001, published 2003).
Structures can show the parent of a compound that is named as a salt.

Tests used:
Type in all cases: physicochemical
[1] = HPLC content of the impurity at RRT about 1.5 after storage; settings: storage for 4 days at 55° C., UV 285 nm, b52 gives such levels as HPLC area percentage, HCl
From the text: Without being bound by theory, it is believed that impurities in paroxetine hydrochloride play a role in the color change to pink. The level of the impurities in paroxetine that are associated with a color change to pink can be analyzed in two different manners. One approach is a simple visual analysis, i.e., observing if a sample of paroxetine HCl has turned pink. Another approach is to measure the degree of an impurity identified by a high pressure liquid chromatography (“HPLC”) relative retention time (“RRT”) of about 1.5. The different UV-spectrum characteristic of this impurity has linked the impurity to the development of a pink color. […] Purification steps to remove this impurity such as by crystallization, extraction, chromatography or other separation procedures are often ineffective. The paroxetine hydrochloride of the present process is substantially free of impurities associated with a color change to pink, and is less susceptible, if at all, to develop a pink color overtime These impurities include the impurity identified by an HPLC RRT of about 1.5. Retention time refers to the time required for a compound to pass from the point of injection to the detector. […] Detected by U.V. spectroscopy at λ=285 nm.

[2] = Visual analysis of the colour of a paroxetine HCl solution; settings: 2 mg/ml paroxetine HCl in 0.05M di-Potassium hydrogen phosphate buffer and 35% acetonitrile, standing 20 minutes
Experimental: One visual analysis can be carried out by preparing a solution of about 2 mg/ml of paroxetine HCl prepared in a mixture of about 0.05M di-Potassium hydrogen phosphate buffer and about 35% of acetonitrile. […] Preferably, the solution of the paroxetine HCl of the present invention is color free for at least about 20 minutes. On the other hand, available commercial products usually produce a pink colored solution under similar conditions. To test the purity of the final product, a 2 mg/ml solution of paroxetine HCl was prepared in a mixture of 0.05M di-Potassium hydrogen phosphate buffer and 35% of acetonitrile.

[3] = Visual analysis of the colour of solid paroxetine HCl during storage; settings: storage for at least one month at 55° C.
Experimental: Another visual analysis can be carried out by observing the color of paroxetine hydrochloride during storage. Preferably, the paroxetine HCl of the present invention is substantially free compounds associated with a pink color for at least four days at a temperature of about 55° C. and a relative humidity of about 60-80%. One of skill in the art can appreciate that the level of the compounds associated with a pink color can vary according to the temperature and other conditions used for storage.
Paroxetine HCl (approximately 4 grams) was dissolved in toluene(40 ml) at reflux. Ascorbic acid (40 mg) and active carbon SX1 (200 mg) were added to the solution and stirred for 5-10 minutes. The solution was then filtered. The filtrate was cooled to 2-4° C., stirred for approximately 1 hour and filtered again to separate a formed precipitate. The solid precipitate was washed with toluene (4 ml) and dried at a temperature of 60° C. under vacuum to give white (color-free) product (3.4 grams). The product was color-free during storage for at least one month at a temperature of 55° C., and yielded solutions (carried out in the same manner as example 1) that were also color-free.

content of the impurity at RRT about 1.5 after storage [1]	development of a pink color in solution [2]	color of the product during storage [3]	Compound
0.23			Fc1ccc([C@@H]2CCNC[C@H]2COc2ccc3c(c2)OCO3)cc1 [Example 3, paroxetine HCl]
	did not develop a pink color		Fc1ccc([C@@H]2CCNC[C@H]2COc2ccc3c(c2)OCO3)cc1 [Example 1, paroxetine HCl]
0.02			Fc1ccc([C@@H]2CCNC[C@H]2COc2ccc3c(c2)OCO3)cc1 [Example 2, paroxetine HCl]
	color-free	color-free	Fc1ccc([C@@H]2CCNC[C@H]2COc2ccc3c(c2)OCO3)cc1 [Example 5, Paroxetine HCl]
